In patent publication US20260108546A1 (ELI LILLY AND COMPANY, priority 2024, published 2026):

Molecular target: T1, hGIP-R (Homo sapiens, UniProt P48546)
T1 construct: expressed in transfected cells; host or cells: HEK-293 clonal cell lines
T1 sequence (P48546 22-466): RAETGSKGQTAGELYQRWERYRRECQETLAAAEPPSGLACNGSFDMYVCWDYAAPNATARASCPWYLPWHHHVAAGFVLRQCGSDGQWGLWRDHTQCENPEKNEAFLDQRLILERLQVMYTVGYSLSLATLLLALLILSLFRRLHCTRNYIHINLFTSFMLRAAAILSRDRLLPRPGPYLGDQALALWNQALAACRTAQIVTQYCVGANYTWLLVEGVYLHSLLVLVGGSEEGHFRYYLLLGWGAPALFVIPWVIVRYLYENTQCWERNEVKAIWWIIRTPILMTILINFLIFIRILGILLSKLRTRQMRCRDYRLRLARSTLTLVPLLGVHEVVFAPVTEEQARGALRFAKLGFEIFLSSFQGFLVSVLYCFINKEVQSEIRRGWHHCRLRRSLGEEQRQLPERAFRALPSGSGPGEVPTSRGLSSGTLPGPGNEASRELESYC
Assay: Functional hGIP-R Assay (cAMP formation, HTRF)
Format: cell-based
Conditions: for Emax: cAMP efficacy, percent of maximal response to GIP(1-42)OH, 37° C., 0.1% bovine casein, arithmetic mean ± SEM; for EC50: cAMP potency, HEK-293 cells expressing hGIP-R, incubated at 37° C. in the presence of 0.1% bovine casein, geometric mean, read-out: Human GIP-R EC50, nM (SEM, n)
In short: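 Relative EC50 and Emax came from four-parameter logistic fits of cAMP as a percent of the human GIP (1-42) OH maximal response. The cAMP was measured by competitive HTRF after 30 min, 37 °C compound exposure of hGIP-R HEK-293 clones in IBMX (250 μM)-containing medium.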

Compound	Emax	EC50
CC(C)(Cc1ccc(F)cn1)NC(=O)[C@@H](Cc1cnc2ncccn12)NC(=O)[C@H]1C[C@@H]1c1ccc(-c2cnc3nc(C(F)(F)F)cn3c2)cc1 [Example 85, (1S,2S)-N-((R)-1-((1-(5-Fluoropyridin-2-yl)-2-methylpropan-2-yl)amino)-3-(imidazo[1,2-a]pyrimidin-3-yl)-1-oxopropan-2-yl)-2-(4-(2-(trifluoromethyl)imidazo[1,2-a]pyrimidin-6-yl)phenyl)cyclopropane-1-carboxamide]	87 ± 0.761%	41 nM
Cn1cc(C[C@@H](NC(=O)C2CC2c2ccc(-c3cnc4nn(C)cc4c3)s2)C(=O)NC(C)(C)Cn2nc(C(F)(F)F)cc2-c2ccc(=O)n(C)c2)cn1 (single isomer, unassigned; isomer 2) [Example 60]	89.8 ± 3.63%	189 nM
Cn1cc(C[C@@H](NC(=O)[C@H]2C[C@@H]2c2ccc(-c3cnc4nn(C)cc4c3)cc2)C(=O)NC(C)(C)Cn2nc(C(F)(F)F)cc2-c2n[nH]c(=O)s2)cn1 [Example 16, (1S,2S)-N-((R)-1-((2-Methyl-1-(5-(5-oxo-4,5-dihydro-1,3,4-thiadiazol-2-yl)-3-(trifluoromethyl)-1H-pyrazol-1-yl)propan-2-yl)amino)-3-(1-methyl-1H-pyrazol-4-yl)-1-oxopropan-2-yl)-2-(4-(2-methyl-2H-pyrazolo[3,4-b]pyridin-5-yl)phenyl) cyclopropane-1-carboxamide]	104 ± 4.17%	36 nM
CN(C)Cc1ccc(-c2cc(C(F)(F)F)nn2CC(C)(C)NC(=O)[C@@H](Cc2cnn(C(F)F)c2)N2CC[C@@]3(C[C@@H]3c3ccc(-c4cnc5nn(C)cc5c4)cc3F)C2=O)cn1 [Example 135, (R)-3-(1-(Difluoromethyl)-1H-pyrazol-4-yl)-N-(1-(5-(6-((dimethylamino)methyl)pyridin-3-yl)-3-(trifluoromethyl)-1H-pyrazol-1-yl)-2-methylpropan-2-yl)-2-((1S,3R)-1-(2-fluoro-4-(2-methyl-2H-pyrazolo[3,4-b]pyridin-5-yl)phenyl)-4-oxo-5-azaspiro[2.4]heptan-5-yl)propanamide]	48.5 ± 2.32%	5.61 nM
CN1CC2C=C(c3ccc([C@H]4C[C@@]45CCN([C@H](Cc4cnn(C(F)F)c4)C(=O)NC(C)(C)Cn4nc(C(F)(F)F)cc4-c4cnc(C(F)(F)F)nc4)C5=O)cc3)C=NC2C1=O (single isomer, unassigned; isomer 1) [Example 103]	73.3 ± 6.2%	99.6 nM
Cn1cc(-c2cc(C(F)(F)F)nn2CC(C)(C)NC(=O)[C@@H](Cc2cnn(C(F)F)c2)NC(=O)[C@H]2C[C@@H]2c2nc3cnn(C)c3cc2F)cc(F)c1=O [Example 157, (1S,2S)-N-((R)-3-(1-(Difluoromethyl)-1H-pyrazol-4-yl)-1-((1-(5-(5-fluoro-1-methyl-6-oxo-1,6-dihydropyridin-3-yl)-3-(trifluoromethyl)-1H-pyrazol-1-yl)-2-methylpropan-2-yl)amino)-1-oxopropan-2-yl)-2-(6-fluoro-1-methyl-1H-pyrazolo[4,3-b]pyridin-5-yl)cyclopropane-1-carboxamide]	16.5 ± 0.234%	108 nM
Cn1cc2cc(-c3ccc([C@H]4C[C@@]45CCN([C@H](Cc4cnn(C(F)F)c4)C(=O)NC(C)(C)Cn4nc(C(F)(F)F)cc4-c4ccc(P(C)(C)=O)cc4)C5=O)c(Cl)c3)cnc2n1 [Example 162, (R)-2-((1S,3R)-1-(2-chloro-4-(2-methyl-2H-pyrazolo[3,4-b]pyridin-5-yl)phenyl)-4-oxo-5-azaspiro[2.4]heptan-5-yl)-3-(1-(difluoro-methyl)-1H-pyrazol-4-yl)-N-(1-(5-(4-(dimethyl-phosphoryl)phenyl)-3-(trifluoro-methyl)-1H-pyrazol-1-yl)-2-methylpropan-2-yl)propanamide]	50%	0.179 nM
CN1CCC(n2cc(C(F)(F)F)nc2CC(C)(C)NC(=O)[C@@H](Cc2cnn(C(F)F)c2)N2CC[C@@]3(C[C@@H]3c3ccc(-c4cnc5nc(C6CC6)cn5c4)cc3Cl)C2=O)C1=O (single isomer, unassigned) [Example 146]	120 ± 5.11%	0.234 nM
